The values below come from patent US8399480B2, “Hydroxymethyl pyrrolidines as beta 3 adrenergic receptor agonists” (Merck Sharp & Dohme Corp., priority 2008, dated 2013).

Each structure is given as a SMILES string.

In one assay the target is T1, human β3 adrenergic receptor (Homo sapiens, UniProt P13945).
T1 construct: expressed in transfected cells; host or cells: Chinese hamster ovary (CHO) cells, stably transfected
T1 sequence (P13945 whole entry): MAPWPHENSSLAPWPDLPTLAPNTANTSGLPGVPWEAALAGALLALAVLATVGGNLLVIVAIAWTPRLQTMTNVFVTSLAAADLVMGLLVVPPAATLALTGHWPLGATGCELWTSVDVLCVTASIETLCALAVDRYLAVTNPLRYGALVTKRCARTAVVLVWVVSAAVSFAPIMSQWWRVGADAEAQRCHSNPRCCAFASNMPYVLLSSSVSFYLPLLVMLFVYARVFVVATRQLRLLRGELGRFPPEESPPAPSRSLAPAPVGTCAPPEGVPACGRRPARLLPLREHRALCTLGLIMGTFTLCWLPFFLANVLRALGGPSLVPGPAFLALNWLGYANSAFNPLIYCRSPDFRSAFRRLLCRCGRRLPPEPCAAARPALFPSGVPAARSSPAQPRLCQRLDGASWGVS
Briefly: Functional assay: cAMP production (LANCE TR-FRET) in CHO cells stably transfected with cloned β3 adrenergic receptor. Format: cell-based. The conditions noted are these: Table 4; human β3 functional activity; read-out: Human β Binding. The procedure:
Chinese hamster ovary (CHO) cells, stably transfected with the cloned β-adrenergic receptor (β1, β2 or β3) are harvested after 3 days of subculturing. Harvesting of cells is done with Enzyme-free Dissociation Media (Specialty Media). Cells are then counted and resuspended in assay buffer (Hank's Balanced salt solution supplemented with 5 mM HEPES, 0.1% BSA) containing a phosphodiesterase inhibitor (IBMX, 0.6 mM). The reaction is initiated by mixing 6,000 cells in 6 μL with 6 μL Alexa Fluor labeled cAMP antibody (LANCE™ kit) which is then added to an assay well containing 12 μL of compound (diluted in assay buffer to 2× final concentration). The reaction proceeds for 30 min at room temperature and is terminated by the addition of 24 μL detection buffer (LANCE™ kit). The assay plate is then incubated for 1 h at room temperature and time-resolved fluorescence measured on a Perkin Elmer Envision reader or equivalent. The unknown cAMP level is determined by comparing fluorescence levels to a cAMP standard curve.
The non-selective, full agonist β-adrenergic ligand isoproterenol is used at all three receptors to determine maximal stimulation. […] Data are analyzed using Microsoft Excel and Graphpad Prism or an internally developed data analysis software package.
Background: cAMP levels reflect the balance of adenylyl cyclase and phosphodiesterase activity.
Regarding `O=C(Cn1cncn1)Nc1ccc(C[C@@H]2CC[C@H]([C@H](O)c3ccccc3)N2)cc1` [Example 80], the EC50 was 0.011 to 0.1 µM.
Same read-out and setting: next, `O=C(Nc1ccc(C[C@@H]2CC[C@H]([C@H](O)c3ccccc3)N2)cc1)C1CCCN1c1ccc(Cl)cc1` (stereo partly shown) [Example 37]: 0.101 to 1 µM; `O=C(Cn1ncnn1)Nc1ccc(C[C@@H]2CC[C@H]([C@H](O)c3ccccc3)N2)cc1` [Example 78]: 0.011 to 0.1 µM.
On the same count and under the same terms, next, `O=C(Cn1cccnc1=O)Nc1ccc(C[C@@H]2CC[C@H]([C@H](O)c3ccccc3)N2)cc1` [Example 64]: 0.001 to 0.01 µM; `Cc1csc(CC(=O)Nc2ccc(C[C@@H]3CC[C@H]([C@H](O)c4ccccc4)N3)cc2)n1` [Example 8]: 0.011 to 0.1 µM.

Staying with this assay, now noted: Table 5; read-out: Human β3 Functional.
On to `CC(C(=O)Nc1ccc(C[C@@H]2CC[C@H]([C@H](O)c3ccccc3)N2)cc1)n1ncccc1=O` (single isomer, unassigned) [Example 162], for which the EC50 lay within 0.001 to 0.01 µM.
On the same count and under the same terms, the result for `CC(C(=O)Nc1ccc(C[C@@H]2CC[C@H]([C@H](O)c3ccccc3)N2)cc1)n1nncc1C(=O)O` (single isomer, unassigned) [Example 196] reads 0.001 to 0.01 µM; that for `Cc1noc2c1CCC2C(=O)Nc1ccc(C[C@@H]2CC[C@H]([C@H](O)c3ccccc3)N2)cc1` (single isomer, unassigned) [Example 140], 0.011 to 0.1 µM.
Still for that read-out and setting: the result for `Nc1nc2c(s1)CCCC2C(=O)Nc1ccc(C[C@@H]2CC[C@H]([C@H](O)c3ccccc3)N2)cc1` (single isomer, unassigned) [Example 116] reads 0.001 to 0.01 µM; that for `O=C(Nc1ccc(C[C@@H]2CC[C@H]([C@H](O)c3ccccc3)N2)cc1)C1CCc2cn[nH]c21` (single isomer, unassigned) [Example 136], 0.011 to 0.1 µM.
Still for that read-out and setting: next, `O=C(Nc1ccc(C[C@@H]2CC[C@H]([C@H](O)c3ccccc3)N2)cc1)C1CCc2ccccc2C1` (single isomer, unassigned) [Example 108]: 0.101 to 1 µM; `CC(C(=O)Nc1ccc(C[C@@H]2CC[C@H]([C@H](O)c3ccccc3)N2)cc1)n1cncn1` (single isomer, unassigned) [Example 177]: 0.001 to 0.01 µM; `O=C(Nc1ccc(C[C@@H]2CC[C@H]([C@H](O)c3ccccc3)N2)cc1)C1CCc2ncnn21` (single isomer, unassigned) [Example 129]: 0.011 to 0.1 µM.
Take `O=C(Nc1ccc(C[C@@H]2CC[C@H]([C@H](O)c3ccccc3)N2)cc1)C1CCc2sc(-c3ccc(F)cc3)nc21` (single isomer, unassigned) [Example 123]: the EC50 fell in the range of 0.101 to 1 µM.
On the same count and under the same terms, the result for `O=C(Nc1ccc(C[C@@H]2CC[C@H]([C@H](O)c3ccccc3)N2)cc1)C1CCc2cn[nH]c21` (single isomer, unassigned) [Example 137] reads 0.011 to 0.1 µM; that for `O=C(Nc1ccc(C[C@@H]2CC[C@H]([C@H](O)c3ccccc3)N2)cc1)C1CCCn2nnnc21` (single isomer, unassigned) [Example 152], 0.011 to 0.1 µM.

Staying with this assay, now noted: Table 7; β3AR-cAMP; read-out: Human β3 Functional.
In the case of `O=S(=O)(Nc1ccc(C[C@@H]2CC[C@H]([C@H](O)c3ccccc3)N2)cc1)c1cccc2ccccc12` [Example 235], the EC50 was in the range of 0.101 to 1 µM.
Still for that read-out and setting: the result for `O=S(=O)(Cc1cccnc1)Nc1ccc(C[C@@H]2CC[C@H]([C@H](O)c3ccccc3)N2)cc1` [Example 249] reads 1 to 3 µM.

Staying with this assay, now noted: Table 8; read-out: Human β3 Functional.
Regarding `O=C(NCc1nnc(-c2ccccc2)[nH]1)Nc1ccc(C[C@@H]2CC[C@H]([C@H](O)c3ccccc3)N2)cc1` [Example 255], the EC50 fell in the range of 0.001 to 0.01 µM.
Same read-out and setting: the result for `O=C1OC2(CCN(C(=O)Nc3ccc(C[C@@H]4CC[C@H]([C@H](O)c5ccccc5)N4)cc3)CC2)c2cnccc21` [Example 259] reads 0.101 to 1 µM.

The assay is the same for the next values; noted with them: given as a range; cAMP, CHO cells; read-out: human β3 functional activity.
Consider `CC(C(=O)Nc1ccc(C[C@@H]2CC[C@H]([C@H](O)c3cccc(F)c3)N2)cc1)c1cscn1` (single isomer, unassigned) [Example 275], for which the EC50 was < 0.001 µM.

Still in this assay, the particulars now being: human β3 functional activity, shown as ranges; Table 13; read-out: Human β3 Functional.
Take `O=C(Nc1ccc(CC2CCC(C(O)c3cccc(Cl)c3)N2)cc1)C1CCc2sc(F)nc21` (single isomer, unassigned) [Example 300]: the EC50 lay within 0.001 to 0.01 µM.
